Experimental data from BindingDB's records for doi:10.1016/j.bmcl.2021.128086 (Vrije Universiteit Brussel, 2021).
pIC50: −log10 of the molar value.

Molecular target: T1, Type-2 angiotensin II receptor (Homo sapiens, UniProt P50052)
T1 sequence (P50052 whole entry): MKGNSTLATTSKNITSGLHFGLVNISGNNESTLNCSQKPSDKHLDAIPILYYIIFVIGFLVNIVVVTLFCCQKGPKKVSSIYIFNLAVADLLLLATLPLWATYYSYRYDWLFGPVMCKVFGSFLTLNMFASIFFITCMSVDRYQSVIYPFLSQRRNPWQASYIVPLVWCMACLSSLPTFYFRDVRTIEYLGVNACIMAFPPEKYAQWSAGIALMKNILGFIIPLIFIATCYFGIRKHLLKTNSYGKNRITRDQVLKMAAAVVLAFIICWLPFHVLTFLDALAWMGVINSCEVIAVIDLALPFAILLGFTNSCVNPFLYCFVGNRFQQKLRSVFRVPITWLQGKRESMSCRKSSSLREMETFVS
Assay: Displacement of [125-I]-[Sar1, Ile8] from recombinant human AT2R transfected in human HEK293 cells incubated for 2 hrs by liquid scintillation counter analysis

- pIC50: 8.40
Substance: H-DRVYIYPF-OH
